Measured values taken from patent US11801228B2, “Modified guanidine-containing polymers for biologic delivery” (THE FLORIDA INTERNATIONAL UNIVERSITY BOARD OF TRUSTEES, priority 2022, dated 2023).

Tested on: HeLa cells
Test: Functional protein delivery (MTT with PN/enzyme complexes)
Type: cell-based
Details: no carrier
Procedure: Final concentrations of 40, 20, 10, and 5 μM were added into the complete media by dilution of the polymer stock solutions. After addition of the samples, cells were incubated for 18 h prior to treatment with 10 μL of methylthiazole tetrazolium (MTT) (5 mg/mL in PBS) and incubated for 4 h at 37° C. After incubation, 200 μL of medium was gently removed and 100 μL of biological grade DMSO was added to solubilize the purple formazan crystals. Absorbance was measured by microwell plate reader. Cell viability was determined as a function of absorbance of each sample relative to control wells. All measurements represent the average of three independent measurements+/−standard deviation.
MTT assay was performed with PN/enzyme complexes are described previously. In short, serial dilutions of saporin or RNase were prepared and complexes with various PNs. For serum-containing media, complexes were added to HeLa cells and incubated overnight prior to MTT treatment. For serum-free experiments, complexes were added in DMEM for 4 h and the media was replaced with complete media overnight prior to MTT treatment.

Row | Molecule | toxicity of free enzyme on HeLa cells
1 | Saporin | no toxicity
2 | RNase A: 13.7 kDa enzyme capable of degrading RNA chains (protein, UniProt P61823 27-150, looked up) Ribonuclease pancreatic: KETAAAKFERQHMDSSTSAASSSNYCNQMMKSRNLTKDRCKPVNTFVHESLADVQAVCSQKNVACKNGQTNCYQSYSTMSITDCRETGSSKYPNCAYKTTQANKHIIVACEGNPYVPVHFDASV | no toxicity
